Reference: patent US9226902B2, “Stabilized transdermal drug delivery system” (Mylan Technologies Inc., priority 2008, dated 2016)

Test: Glass transition temperature (DSC)
Assay type: physicochemical
Conditions: amorphous form
Procedure: The glass transition temperature of undispersed amorphous scopolamine is about 10° C.

CN1[C@@H]2C[C@@H](OC(=O)[C@H](CO)c3ccccc3)C[C@H]1[C@@H]1O[C@@H]12 [undispersed amorphous scopolamine, scopolamine]
glass transition temperature (Tg): about 10 °C
